{"source": "paper PMC7177456", "about": "“A Peptidomimetic Fluorescent Probe to Detect the Trypsin β2 Subunit of the Human 20S Proteasome” (International Journal of Molecular Sciences, 2020)", "key": {"[1]": {"biological_target": "T1, human 20S proteasome, trypsin-like (β2) subunit (Homo sapiens, UniProt P49720+Q99436)", "T1 construct": "purchased Boston Biochem (Cambridge, MA, USA)", "experiment": "Kinetic parameters of substrate 1 with human 20S proteasome (allosteric fit)", "type": "biochemical", "conditions": "SDS 0.01%, substrate 1", "method": "For enzymatic studies, the human 20S proteasome, 26S proteasome, and 20S immunoproteasome were purchased from Boston Biochem (Cambridge, MA, USA). The 20S proteasome concentration for library deconvolution was in the nanomolar range, and this proteasome entity was used for the main study. Deconvolution of the peptide libraries was performed using the iterative solution method. Dimethyl sulfoxide (DMSO) was used as a solvent for preparation of the stock solution (5 mg/mL) for each lyophilized sub-library. This stock solution was diluted ten times using an assay buffer (50 mM Tris/HCl buffer (pH 8.2)) for the 20S and 20Si proteasome, and for 26S, the buffer was supplemented with 40 mM KCl, 2 mM EDTA, 1 mM DTT, 100 µM ATP, and 50 µg/mL bovine serum albumin (BSA). The volume composition of each well of the 96-well plate was: 20 µL library, 160 µL assay buffer, and 20 µL 20S proteasome solution at a concentration of 1.07 × 10^−9 M. Absorbance or fluorescence measurements were performed on a FluoroStar OMEGA multimode microplate reader (BMG, Ortenberg, Germany). Absorbance increases were monitored at 410 nm. The excitation and emission wavelengths were 320 and 450 nm respectively, for the ABZ/ANB. Enzymatic hydrolysis of the peptide was performed in the assay buffer at 37 °C and continued over 60 min.\nThe procedures to determine the kinetic constants Km and kcat are described below. Increasing concentrations of substrate 1 ranged from 1 × 10^−6 to 2 × 10^−5 M. In parallel, a kinetic assay with the artificial activator SDS at 0.01% was also performed. The data were fitted to an allosteric plot using GraphPad prism v6.0 (GraphPad Software Inc., La Jolla, CA, USA). The specificity constants (kcat/ Km) were calculated from the kcat and Km values. Measurements were performed using a 20S proteasome concentration of 1.07 × 10^−9 M. Three to five measurements were performed for each compound dilution (the systematic error, defined as the standard deviation, never surpassed 20%). The initial hydrolysis rates were used as the amount of enzymatic activity for the tested compounds. All kinetic study details and kinetic parameters have been described elsewhere."}, "20S proteasome": {"test_system": "20S proteasome", "experiment": "Inhibitory studies: cleavage of substrate 1 in the presence of selective proteasome inhibitors", "type": "biochemical, human", "conditions": "30 min preincubation at 37 °C, 20S 1.07 × 10^−9 M, substrate 1.34 × 10^−5 M, triplicate", "excerpt": "A black, 96-well flat-bottomed microplate (Brand GMBH, Wertheim, Germany) was used for the inhibitory studies. Two inhibitors, carfilzomib (a selective inhibitor of the β5 subunit of the 20S proteasome) and epoxomicin, were purchased from Merck (Darmstadt, Germany) and used at final concentrations of 1.15 × 10^−6 M and 5.0 × 10^−5 M, respectively. The β2 inhibitor, PR671A [20], and the β1 inhibitor, NCOO1 [21], were used at a concentration of 5 × 10^−6 M. These reagents were kindly provided by Alexei Kisselev from Dartmouth University (Dartmouth, NH, USA). The concentration of 20S proteasome was 1.07 × 10^−9 M. The buffered proteasome solution was mixed with 10 µL inhibitor solution. This mixture was incubated for 30 min at 37 °C. After this period, the substrate solution was added at a concentration of 1.34 × 10^−5 M, and the fluorescence was measured over time at 320 nm excitation and 450 nm emission wavelengths. All measurements were performed in triplicate."}, "[2]": {"test_system": "neutrophil-related proteases / neutrophil serine protease 4 (NSP4)", "conditions": "ref [19], cited from earlier work", "excerpt": "Recently, we established a new method for the selection and synthesis of artificial fluorogenic substrates composed of DAPEG residues (Figure 1). For the screening of 18 libraries, we created a series of compounds based on the neutrophil serine protease 4 (NSP4) substrate sequence (ABZ–X4–X3–X2–Arg–ANB–NH2) diversified in positions X4 to X2 with DAPEG, resulting in a total of almost 6000 compounds."}, "[3]": {"test_system": "trypsin-like subunit of the 20S proteasome", "conditions": "cited from earlier work; for selectivity for trypsin-like specificity: commercially available substrates, no reference given; for selectivity for trypsin-like specificity / selectivity for the trypsin subunit: introduction", "excerpt": "Table 1 Overview of the fluorogenic substrates of the trypsin-like subunit of the 20S proteasome. | column: Km (µM); kcat (s^−1); kcat/Km (M^−1 s^−1) || The aim of this work is to develop a new substrate to assay the trypsin-like specificity of the human 20S proteasome that is created by DAPEG building blocks, which are N-substituted functionalized derivates of 3-diaminopropionic acid (Figure 1). The substrate preferences of the β2 subunit have been previously examined. Harris and coworkers described the development of new substrates selected via combinatorial library screening. The substrate peptides were labeled with 7-amino-4-carbamoylmethylcoumarin (ACC) as a reporter moiety, and a specific sequence of the β2 subunit, Ac–Glu– ..."}, "[4]": {"test_system": "chymotrypsin subunit (β5) of the 20S proteasome in human urine", "experiment": "Proteasome activity in human urine with the β5 substrate", "type": "biochemical", "method": "All urine samples were purchased from St. Vincent de Paul Hospital in Gdynia, Poland (contract no. JN/777/R720/08.11.17). All methods and procedures were performed in accordance with this contract agreement. Participants were informed about the study and sample collection, and their written consent was collected. […] Therefore, the samples were considered unnamed. The samples of human urine were taken during mid-urination and kept for 48 h at −80 °C until required. All samples used for assay development were taken from healthy volunteers (n = 5), and oncological samples were obtained from patients diagnosed with bladder cancer (n = 8).\nIn parallel, the urine samples were analyzed using the previously developed substrate ABZ–Val–Val–Ser–Tyr–Ala–Met–Gly–Tyr(3-NO2)–NH2 [21] in two systems: one with the artificial activator SDS at 0.01% and the second without any SDS. The fluorescence of the system was recorded over time. The same conditions for excitation and emission were used as above. All measurements were performed in triplicate.\nThe resulting data were analyzed using Graphpad Prism version 6.0 software (GraphPad Software Inc., La Jolla, CA, USA). All fluorescent measurements were performed in triplicate and represented by the mean ± standard deviation (SD). A two-tailed Mann–Whitney test was applied for the statistical analysis (p < 0.0001)."}}, "note": "Where two headings read alike, the source gives them in different places. Non-standard residues stand in square brackets, D forms with d. *: point of attachment. ACC = NC(=O)Cc1cc(=O)oc2cc(N*)ccc12; AMC = Cc1cc(=O)oc2cc(N*)ccc12; hSer = N[C@@H](CCO)C(=O)O; Boc = CC(C)(C)OC(=O)*", "data": [{"compound": "CCCCCCCCCCCCOS(=O)(=O)[O-].[Na+]", "note": "[SDS, sodium dodecyl sulfate]", "values": [{"measurement": "effect on β2 subunit activity of the 20S proteasome", "setting": "[1]", "result": "not significantly altered"}]}, {"compound": "CC(C)C[C@H](NC(=O)[C@H](CCc1ccccc1)NC(=O)CN1CCOCC1)C(=O)N[C@@H](Cc1ccccc1)C(=O)N[C@@H](CC(C)C)C(=O)[C@@]1(C)CO1", "note": "[carfilzomib]", "values": [{"measurement": "effect on cleavage of substrate 1", "setting": "20S proteasome; carfilzomib (β5) 1.15 × 10^−6 M", "result": "a slight activation of the cleavage rate"}]}, {"compound": "CC[C@H](C)[C@H](NC(=O)[C@H]([C@@H](C)CC)N(C)C(C)=O)C(=O)N[C@H](C(=O)N[C@@H](CC(C)C)C(=O)[C@@]1(C)CO1)[C@@H](C)O", "note": "[epoxomicin]", "values": [{"measurement": "effect on cleavage of substrate 1", "setting": "20S proteasome; epoxomicin (general inhibitor) 5.0 × 10^−5 M", "result": "proteolytic suppression of substrate 1"}]}, {"compound": "ABZ–Dap(O2(Cbz))–Dap(Cbz)–Dap(GO1)–Arg–ANB–NH2", "values": [{"measurement": "specificity constant (kcat/Km)", "setting": "[2]; NSP4 substrate-based library", "result": 130000, "unit": "M⁻¹ s⁻¹"}, {"measurement": "selectivity towards neutrophil-related proteases", "setting": "[2]", "result": "high levels of selectivity"}]}, {"compound": "ABZ–Val–Val–Ser–GNF–Ala–Met–Gly–Tyr(3-NO2)–NH2", "values": [{"measurement": "Km", "setting": "[3]; ref [21]", "result": "4.24 ± 0.87", "unit": "µM"}, {"measurement": "kcat", "setting": "[3]; ref [21]", "result": "8.41 ± 0.57", "unit": "s⁻¹"}, {"measurement": "kcat/Km", "setting": "[3]; ref [21]", "result": "1,983,100 ± 2754 M^−1 s^−1"}]}, {"compound": "ABZ–Val–Val–Ser–Tyr–Ala–Met–Gly–Tyr(3-NO2)–NH2 [previously developed substrate]", "values": [{"measurement": "fluorescence increase, healthy samples", "setting": "[4]; healthy urine, all systems (with and without SDS), n = 5", "result": "no visible fluorescence increase"}, {"measurement": "bladder cancer samples with fluorescence increase", "setting": "[4]; with SDS 0.01%, 8 bladder cancer samples, triplicate", "result": "seven systems (1–5, 7, and 8)"}, {"measurement": "fluorescence increase rate, sample N° 6", "setting": "[4]; with SDS 0.01%, bladder cancer sample N° 6", "result": "insignificant"}, {"measurement": "bladder cancer samples with visible fluorescence increase", "setting": "[4]; without SDS, 8 bladder cancer samples, 320/450 nm, triplicate", "result": "2 out of the 8"}]}, {"compound": "Ac-Leu-Arg-Arg-{AMC} [commercially available 20S proteasome substrate]", "values": [{"measurement": "selectivity for trypsin-like specificity", "setting": "[3]", "result": "significant selectivity"}]}, {"compound": "Ac-[dR][hSer]TR-{ACC}", "values": [{"measurement": "selectivity for the trypsin subunit", "setting": "[3]; ref [18]", "result": "moderate selectivity at higher proteasome concentrations"}, {"measurement": "Km", "setting": "[3]; ref [18]", "result": "9.43 ± 0.82", "unit": "µM"}, {"measurement": "kcat", "setting": "[3]; ref [18]", "result": "2.84 ± 0.22", "unit": "s⁻¹"}, {"measurement": "kcat/Km", "setting": "[3]; ref [18]", "result": "301,005 ± 28,471 M^−1 s^−1"}, {"measurement": "kcat/Km", "setting": "[3]; ref [18], listed as Ac–DArg–Hse–Thr–Arg–ACC", "result": "301,005 M^−1 s^−1"}]}, {"compound": "Ac–βAla–Met(O)2–Thr–Arg–ACC", "values": [{"measurement": "selectivity for the trypsin subunit", "setting": "[3]; ref [18]", "result": "most selective"}, {"measurement": "Km", "setting": "[3]; ref [18]", "result": "50.9 ± 2.99", "unit": "µM"}, {"measurement": "kcat", "setting": "[3]; ref [18]", "result": "2.23 ± 0.07", "unit": "s⁻¹"}, {"measurement": "kcat/Km", "setting": "[3]; ref [18]", "result": "43,790 ± 3233 M^−1 s^−1"}, {"measurement": "kcat/Km", "setting": "[3]; ref [18], listed as Ac–βAla–Met(O2)–Thr–Arg–ACC", "result": "43,790 M^−1 s^−1"}]}, {"compound": "Boc-Leu-Arg-Arg-{AMC} [commercially available 20S proteasome substrate]", "values": [{"measurement": "selectivity for trypsin-like specificity", "setting": "[3]", "result": "significant selectivity"}, {"measurement": "kcat/Km", "setting": "[3]; ref [22]", "result": "<500", "unit": "M⁻¹ s⁻¹"}]}]}
